Here are results for 1 molecule from patent US12370167B2, “Blood-brain barrier permeability regulator and use thereof” (ZHEJIANG UNIVERSITY, priority 2019, dated 2025).

Each structure is given as a SMILES string.

The test system of assay [1] is blood-brain barrier permeability. Briefly: Evans blue permeation into the brain after SC79. The format is in vivo, BABL/c nude mice. As to the method: FIG. 10: In vivo regulation of increase in the blood-brain barrier permeability and increase in the amount of Evans blue permeated into the brain by SC79. SC79 was injected into tail veins of tumor-bearing animals at an administration dose of 5 mg/kg and 10 mg/kg, respectively. After 24 hours, an Evans blue solution was injected into tail veins at an administration dose of 5 mg/kg. After 4 hours, the intact brain of the nude mice was taken by cardiac perfusion.
FIG. 11: In vivo time-dependent regulation of increase in the blood-brain barrier permeability by SC79. SC79 was injected into tail veins of tumor-bearing animals at an administration dose of 5 mg/kg and 10 mg/kg, respectively. After 0 hour, 0.5 hour, and 24 hours, an Evans blue solution was injected into tail veins at an administration dose of 5 mg/kg. After 4 hours, the intact brain of the nude mice was taken by cardiac perfusion.
Male BABL/c nude mice (20+2 g) were used as the model animals. SC79 diluted with 0.2% injection grade Tween 80 solution was injected into tail veins at an administration dose of 5 mg/kg, 10 mg/kg. After 24 hours, an Evans blue solution was injected into tail veins at an administration dose of 5 mg/kg. After 4 hours, the intact brain of the nude mice was taken by cardiac perfusion. The distribution intensity of Evans blue in the brain tissue was qualitatively observed with a small animal live imaging instrument.
Male BABL/c nude mice (20±2 g) were used as the model animals. SC79 diluted with 0.2% injection grade Tween 80 solution was injected into tail veins at an administration dose of 5 mg/kg, 10 mg/kg. After 0.5 hour, and after 24 hours, an Evans blue solution was injected into tail veins at an administration dose of 5 mg/kg. After 4 hours, the intact brain of the nude mice was taken by cardiac perfusion. The distribution intensity of Evans blue in the brain tissue was qualitatively observed with a small animal live imaging instrument.

Assay [2] shares this test system. Briefly: Brain distribution of DiR-labelled Angiopep-2-modified glycolipid nano-delivery system after SC79 in in situ glioma model. The format is in vivo, BABL/c nude mice. The settings on record: SC79 5 mg/kg tail vein 24 hours before the DiR-labelled system; brain taken after 4 hours; vs tumor-bearing control group. Here is the method:
FIG. 12: Regulation of increase in the blood-brain barrier permeability and enhancement of distribution of Angiopep-2-modified glycolipid nano-delivery system in the brain by SC79. SC79 was injected into tail veins of tumor-bearing animals at an administration dose of 5 mg/kg. After 24 hours, the Angiopep-2-modified glycolipid nano-delivery system encapsulated with near-infrared fluorescent probe DiR was injected into tail veins. After 4 hours, the intact brain of the nude mice was taken by cardiac perfusion.
Male BABL/c nude mice (20+2 g) were used as the model animals. U87-luci glioma cells expressing luciferase were inoculated in the striatum area of nude mice at a concentration of 5×10^5 cells/5 μL by means of a brain stereotaxic instrument (inoculation coordinates, 0.8 mm on the anterior side of bregma, 2 mm on the right side, and 3 mm in depth), to construct an in situ glioma model. SC79 diluted with 0.2% injection grade Tween 80 solution was injected into tail veins at an administration dose of 5 mg/kg. After 24 hours, the Angiopep-2-modified glycolipid nano-delivery system encapsulated with near-infrared fluorescent probe DiR was injected into tail veins. After 4 hours, the intact brain of the nude mice was taken by cardiac perfusion. […]

Another assay deals with neurons. To be noted: mouse model of permanent local cerebral ischemia; cited from earlier work.

For the molecule `CCOC(=O)C1=C(N)Oc2ccc(Cl)cc2C1C(C#N)C(=O)OCC` (centres unmarked) [SC79], the “amount of Evans blue permeated into the brain” value is given as “increased” in assay [1] (SC79 5 mg/kg, 10 mg/kg tail vein, Evans blue after 24 hours, vs tumor-bearing control group); “increased” in assay [1] (SC79 tail vein, Evans blue 0.5 hour after SC79); “the highest” in assay [1] (SC79 tail vein, Evans blue 24 hours after SC79). The “distribution of Angiopep-2-modified glycolipid nano-delivery system in the brain” value in assay [2] is recorded as “increased”. Also, in the assay with neurons, the survival of neurons entry is on record as “increases the survival of neurons”.
